# Test results reported in paper PMC12016938, “A small molecule PKCε inhibitor reduces hyperalgesia induced by paclitaxel or opioid withdrawal” (JCI Insight, 2025).
# Values joined by “and” are separate entries in the source; they are usually repeats but may differ in a detail not shown here. Equal values may be shown once. Read-outs that look alike come from different tables or passages of the source.
# What was measured:
# PKN1 (Protein kinase N1) = target: T1, PKN1 (Protein kinase N1) (Homo sapiens, UniProt Q16512); test: scanMax kinome panel, PKN1; assay type: binding; settings: 200 nM CP612; read-out: scanMax % of control, PKN1
# T1 construct: purchased Eurofins-DiscoverX
# T1 sequence (Q16512 whole entry): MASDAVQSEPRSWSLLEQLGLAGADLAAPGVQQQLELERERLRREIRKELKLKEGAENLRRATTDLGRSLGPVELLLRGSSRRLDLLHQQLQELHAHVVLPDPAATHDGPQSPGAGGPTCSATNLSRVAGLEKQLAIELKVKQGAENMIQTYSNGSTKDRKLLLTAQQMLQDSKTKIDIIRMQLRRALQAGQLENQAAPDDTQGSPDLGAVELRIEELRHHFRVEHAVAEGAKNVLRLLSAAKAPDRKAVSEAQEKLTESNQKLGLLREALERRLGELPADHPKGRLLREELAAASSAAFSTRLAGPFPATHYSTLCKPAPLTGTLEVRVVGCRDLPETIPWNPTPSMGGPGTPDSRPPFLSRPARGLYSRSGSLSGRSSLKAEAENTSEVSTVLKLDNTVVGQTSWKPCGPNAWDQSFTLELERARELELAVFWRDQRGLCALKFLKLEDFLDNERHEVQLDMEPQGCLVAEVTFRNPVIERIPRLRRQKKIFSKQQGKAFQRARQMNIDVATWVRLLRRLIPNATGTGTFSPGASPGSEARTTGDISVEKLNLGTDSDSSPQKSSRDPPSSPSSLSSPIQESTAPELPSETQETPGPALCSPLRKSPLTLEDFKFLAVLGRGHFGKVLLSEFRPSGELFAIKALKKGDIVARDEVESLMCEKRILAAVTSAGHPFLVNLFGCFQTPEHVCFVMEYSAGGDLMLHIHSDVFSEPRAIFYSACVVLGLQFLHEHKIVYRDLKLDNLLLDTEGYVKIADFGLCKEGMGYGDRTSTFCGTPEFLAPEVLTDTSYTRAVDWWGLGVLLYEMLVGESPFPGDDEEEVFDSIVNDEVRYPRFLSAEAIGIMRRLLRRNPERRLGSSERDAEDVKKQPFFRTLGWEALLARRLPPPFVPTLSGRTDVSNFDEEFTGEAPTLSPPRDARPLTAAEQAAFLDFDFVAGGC
# Experimental: (§1) CP612 was screened for kinome specificity at 200 nM against 468 kinases using the scanMax assay panel from Eurofins-DiscoverX. CP612 inhibited 10 other WT kinases besides PKCε, all to < 10% of control: CLK1 (CDC Like Kinase 1), CLK4, PKN1 (Protein kinase N1), PKN2, PKCδ, PKCη, PKCθ, PRKG2 (Protein Kinase CGMP-Dependent 2), ROCK1, and ROCK2.
# Plasma stability = settings: for % Absolute: human plasma (hPL); for half-life: human
# Experimental: Plasma stability. To determine in vitro plasma stability, we calculated in vitro plasma half-life. We incubated test substances (0.6 μL) with 60 μL human plasma (BioIVT) in quadruplicate at 37°C.
# [1] = target: T2, PRKG2 (Protein Kinase CGMP-Dependent 2) (Homo sapiens, UniProt Q13237); test: scanMax kinome panel, PRKG2; assay type: binding; settings: 200 nM CP612
# T2 construct: purchased Eurofins-DiscoverX
# T2 sequence (Q13237 whole entry): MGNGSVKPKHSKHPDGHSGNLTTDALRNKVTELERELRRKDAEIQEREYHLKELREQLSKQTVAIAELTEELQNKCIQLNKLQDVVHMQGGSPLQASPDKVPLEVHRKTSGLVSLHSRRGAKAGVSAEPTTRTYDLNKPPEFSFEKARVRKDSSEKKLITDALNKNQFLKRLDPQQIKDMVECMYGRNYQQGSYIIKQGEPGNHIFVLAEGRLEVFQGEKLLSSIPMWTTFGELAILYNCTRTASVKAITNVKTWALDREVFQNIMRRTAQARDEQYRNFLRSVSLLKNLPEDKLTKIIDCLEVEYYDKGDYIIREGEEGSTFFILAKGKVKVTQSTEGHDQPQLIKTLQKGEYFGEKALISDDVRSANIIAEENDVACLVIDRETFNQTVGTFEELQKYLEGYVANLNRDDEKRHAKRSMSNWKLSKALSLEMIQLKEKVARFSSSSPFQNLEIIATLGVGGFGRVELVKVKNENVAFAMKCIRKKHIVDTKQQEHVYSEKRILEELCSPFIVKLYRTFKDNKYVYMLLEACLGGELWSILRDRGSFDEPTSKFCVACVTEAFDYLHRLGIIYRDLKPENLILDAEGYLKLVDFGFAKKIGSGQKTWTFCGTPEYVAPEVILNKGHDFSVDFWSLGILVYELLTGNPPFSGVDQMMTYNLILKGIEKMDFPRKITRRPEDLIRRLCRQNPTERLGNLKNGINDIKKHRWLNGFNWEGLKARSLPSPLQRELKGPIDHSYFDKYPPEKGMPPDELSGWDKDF
# Experimental: as §1
# PKCθ = PKCθ (Homo sapiens, UniProt Q04759); test: scanMax kinome panel, PKCθ; assay type: binding; set-up: purchased Eurofins-DiscoverX; settings: 200 nM CP612; read-out: scanMax % of control, PKCθ
# Chain of PKCθ (Q04759 whole entry): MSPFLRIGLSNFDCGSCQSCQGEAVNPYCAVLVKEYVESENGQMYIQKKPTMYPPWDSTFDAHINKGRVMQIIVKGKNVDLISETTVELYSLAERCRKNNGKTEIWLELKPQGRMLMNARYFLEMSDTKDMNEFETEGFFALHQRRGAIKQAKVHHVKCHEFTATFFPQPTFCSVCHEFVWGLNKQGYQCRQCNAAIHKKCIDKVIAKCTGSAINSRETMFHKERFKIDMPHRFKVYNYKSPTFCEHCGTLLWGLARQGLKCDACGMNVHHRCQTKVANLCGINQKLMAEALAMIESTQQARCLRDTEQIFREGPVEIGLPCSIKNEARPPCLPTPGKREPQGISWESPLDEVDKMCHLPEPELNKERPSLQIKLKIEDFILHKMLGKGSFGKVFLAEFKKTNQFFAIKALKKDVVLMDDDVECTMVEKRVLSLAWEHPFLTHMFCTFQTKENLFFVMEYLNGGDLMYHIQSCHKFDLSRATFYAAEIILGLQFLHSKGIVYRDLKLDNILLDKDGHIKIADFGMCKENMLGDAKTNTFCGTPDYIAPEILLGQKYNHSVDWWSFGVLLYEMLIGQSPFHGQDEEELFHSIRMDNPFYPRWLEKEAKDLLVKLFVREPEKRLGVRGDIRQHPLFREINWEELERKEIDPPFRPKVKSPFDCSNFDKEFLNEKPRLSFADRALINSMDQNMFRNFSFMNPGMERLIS
# Experimental: as §1
# [2] = Kinetic aqueous solubility; assay type: physicochemical
# Experimental: Kinetic aqueous solubility. Test compounds were diluted 100-fold from 1 mM DMSO stocks into 0.1M phosphate-buffered saline (PBS) in triplicate. Diluted samples were shaken at room temperature at 600 rpm for 3 hours and then filtered by centrifugation (0.2 μm, PVDF) at 1,000g for 1 minute. Aliquots of 100 μL were diluted into 3 volumes of acetonitrile for extraction, vortexed for 15 seconds, centrifuged at 16,000g for 10 minutes at 4°C, and then analyzed by liquid chromatography–mass spectrometry (LC-MS).
# [3] = tested on: morphine self-administration
smiles,measurement,setting,value
N[C@H](CNC(=O)C1(c2ccc(Cl)cc2)CCCC1)c1ccc(C(=O)Nc2ccncc2)cc1 [CP612],remaining binding at 0.2 µM,PKN1 (Protein kinase N1),< 10%
same,Plasma stability (in words),Plasma stability; human plasma,good
same,% Absolute,"Plasma stability; time 0 min, individual replicates",98.366% and 71.452% and 77.756%
same,% Absolute,"Plasma stability; time 15 min, individual replicates",34.724% and 41.198% and 31.011%
same,% Absolute,"Plasma stability; time 30 min, individual replicates",46.894% and 51.340% and 53.939%
same,% Absolute,"Plasma stability; time 60 min, individual replicates",48.950% and 36.305% and 40.476%
same,Plasma stability Cl,"Plasma stability; human plasma, 37°C",0.46 ± 0.04 µL/min
same,Cl (clearance),"Plasma stability; human plasma, individual replicates",0.504 and 0.448 and 0.437
same,t1/2 (half life),"Plasma stability; human plasma, individual replicates, time axis in min, in min",92.829 and 95.187
same,k,"Plasma stability; human plasma, slope of Ln Transform vs Time (min), individual replicates",-0.008 and -0.00747 and -0.007
same,half-life,"Plasma stability; human plasma, Plasma stability t½ (min), 37°C",1.5 ± 0.113 h
same,half-life,"Plasma stability; plasma, t1/2 (half life), Mean, human plasma, mean of replicates, time axis in min",1.5 h
same,half-life,"Plasma stability; plasma, t1/2 (half life), human plasma, individual replicates, time axis in min",1.37 h
same,"scanMax % of control, PRKG2",[1],< 10 % of control
same,remaining binding at 0.2 µM,PKCθ,< 10%
same,solubility kinetic at 3 h,"[2]; 0.1M phosphate-buffered saline (PBS), aqueous buffer, kinetic from dmso stock, 0.1M PBS, room temperature, 3 hours, read-out: Kinetic aqueous solubility",7410 ± 120 nM
same,solubility kinetic at 3 h,"[2]; 0.1M phosphate-buffered saline (PBS), aqueous buffer, kinetic from dmso stock, mean of 3 samples, read-out: Kinetic aqueous solubility, Corrected (nM), Mean",7410 nM
same,solubility kinetic at 3 h,"[2]; 0.1M phosphate-buffered saline (PBS), aqueous buffer, kinetic from dmso stock, single sample, read-out: Kinetic aqueous solubility, Corrected",7540 nM
same,solubility kinetic at 3 h,"[2]; single sample, read-out: Kinetic aqueous solubility, Corrected",7309.08 nM and 7388.24 nM
same,Effect on morphine self-administration (breaking point and self-infusions),"[3]; CP612 30 mg/kg i.p. 18 hours prior, 30 mg/kg",did not modify self-administration
same,Inf (avg last 3 days),"[3]; rats, morphine SA 18 h after CP612, average of last 3 days, infusions",8 and 12
